Laboratory results from ChEMBL document CHEMBL1201862, “PubChem BioAssay data set” (2004).
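96-well plates; 48 h exposure; 5 concentrations. Endpoints by linear interpolation between flanking doses. Not reached: highest tested concentration assigned. GI50 marks 50% less growth.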 The source made the active and inactive calls. No stated cut-off is given here; in the data, active = GI50 up to about 1.1 µM and inactive = higher.

Experiments:
Assay in all cases: NCI-60 cell line screen, 48 h
786-0 = test system: 786-0
A549 = test system: A549
EKVX = test system: EKVX
HCC 2998 = test system: HCC 2998
HOP-92 = test system: HOP-92
IGROV-1 = test system: IGROV-1
M14 = test system: M14
NCI-H460 = test system: NCI-H460
OVCAR-4 = test system: OVCAR-4
RPMI-8226 = test system: RPMI-8226
SF-295 = test system: SF-295
SNB-19 = test system: SNB-19
SNB-75 = test system: SNB-75
SR = test system: SR
TK-10 = test system: TK-10
U-251 = test system: U-251
RXF 393 = test system: RXF 393

Row | SMILES | GI50 (786-0) | GI50 (A549) | GI50 (EKVX) | GI50 (HCC 2998) | GI50 (HOP-92) | GI50 (IGROV-1) | GI50 (M14) | GI50 (NCI-H460) | GI50 (OVCAR-4) | GI50 (RPMI-8226) | GI50 (SF-295) | GI50 (SNB-19) | GI50 (SNB-75) | GI50 (SR) | GI50 (TK-10) | GI50 (U-251) | GI50 (RXF 393)
1 | Cc1cccc2c1N(C(=O)/C=C\C(=O)O)C(c1c(C)[nH]c3ccccc13)C2 (stereo not drawn) | 40.8 µM (inactive) | > 100 µM (inactive) | > 100 µM (inactive) | 18.5 µM (inactive) | 22.5 µM (inactive) | > 10 µM (inactive) | 55.1 µM (inactive) | > 100 µM (inactive) | 57.7 µM (inactive) | 28.4 µM (inactive) | 44.8 µM (inactive) | 36.2 µM (inactive) | > 10 µM (inactive) | 31 µM (inactive) | 73.5 µM (inactive) | > 10 µM (inactive) | 
2 | CC1=C(C(=O)Nc2cc(=O)n(C)c(=O)n2C)C(c2ccco2)C(C(=O)Nc2cc(=O)n(C)c(=O)n2C)=C(C)N1 | > 100 µM (inactive) | > 100 µM (inactive) | > 100 µM (inactive) | > 100 µM (inactive) | 48.5 µM (inactive) | > 100 µM (inactive) | > 100 µM (inactive) | > 100 µM (inactive) | > 100 µM (inactive) | > 100 µM (inactive) | > 100 µM (inactive) | > 100 µM (inactive) | 44.8 µM (inactive) |  | > 100 µM (inactive) | > 100 µM (inactive) | > 100 µM (inactive)
3 | O=c1c(-c2ccccc2)c(O)nc2[nH]c3ccccc3n12 | > 100 µM (inactive) | > 100 µM (inactive) | > 100 µM (inactive) | > 100 µM (inactive) | > 100 µM (inactive) | > 100 µM (inactive) | > 100 µM (inactive) | > 100 µM (inactive) | > 100 µM (inactive) | > 100 µM (inactive) | > 100 µM (inactive) | > 100 µM (inactive) | > 100 µM (inactive) | 68.1 µM (inactive) | > 100 µM (inactive) | > 100 µM (inactive) | > 100 µM (inactive)
4 | COc1ccc(OC)c2[s+]snc12 | > 100 µM (inactive) | 40.1 µM (inactive) | > 100 µM (inactive) | > 100 µM (inactive) |  | > 100 µM (inactive) | 63.2 µM (inactive) | 36.6 µM (inactive) | 60.4 µM (inactive) |  | 55.7 µM (inactive) | 65.8 µM (inactive) | 93.5 µM (inactive) | 64.9 µM (inactive) | > 100 µM (inactive) | 28 µM (inactive) | 72.4 µM (inactive)
5 | COc1cc2c(cc1OC)C(C(=O)c1cccc(OC)c1OC)C(=O)N(C)CC2 (stereo not drawn) | > 100 µM (inactive) | > 100 µM (inactive) |  |  | 65.5 µM (inactive) | > 100 µM (inactive) | > 100 µM (inactive) | > 100 µM (inactive) | > 100 µM (inactive) | > 100 µM (inactive) |  | > 100 µM (inactive) | > 100 µM (inactive) |  | > 100 µM (inactive) | > 100 µM (inactive) | > 100 µM (inactive)
6 | COC(=O)/C=C/C1C2C3(CCC(C)C12C)OCCS3 (stereo not drawn) | > 100 µM (inactive) | > 100 µM (inactive) | > 100 µM (inactive) | > 100 µM (inactive) | > 100 µM (inactive) | > 100 µM (inactive) | > 100 µM (inactive) | > 100 µM (inactive) | > 100 µM (inactive) |  | > 100 µM (inactive) | > 100 µM (inactive) | > 100 µM (inactive) | 43.1 µM (inactive) | > 100 µM (inactive) | > 100 µM (inactive) | > 100 µM (inactive)
7 | COc1ccc(C2CC(=O)c3c(O)cc(O)cc3O2)cc1O (stereo not drawn) | > 100 µM (inactive) | > 100 µM (inactive) | > 100 µM (inactive) | > 100 µM (inactive) |  | > 100 µM (inactive) | > 100 µM (inactive) | > 100 µM (inactive) | 65.2 µM (inactive) | 78 µM (inactive) | > 100 µM (inactive) | > 100 µM (inactive) | 53.8 µM (inactive) |  | > 100 µM (inactive) | > 100 µM (inactive) | 
8 | CNS(=O)(=O)NNS(=O)(=O)c1ccc(Br)cc1 | 63.1 µM (inactive) | > 100 µM (inactive) | > 100 µM (inactive) | > 100 µM (inactive) | 32.1 µM (inactive) | > 100 µM (inactive) | > 100 µM (inactive) | 42.7 µM (inactive) | > 100 µM (inactive) | > 100 µM (inactive) |  | 0.309 µM (active) | 47 µM (inactive) |  | > 100 µM (inactive) | 28.3 µM (inactive) | > 100 µM (inactive)
9 | O=C(c1ccccn1)c1nc(-c2ccc(Cl)c(Cl)c2)nc2ccc(Cl)cc12 | 44.6 µM (inactive) | 41.6 µM (inactive) | 74.5 µM (inactive) | > 100 µM (inactive) |  | 35 µM (inactive) | > 100 µM (inactive) | 50.4 µM (inactive) | 40.2 µM (inactive) | > 100 µM (inactive) | 31.1 µM (inactive) |  | 12.3 µM (inactive) |  | 67 µM (inactive) | 44.1 µM (inactive) | 18.7 µM (inactive)
10 | O=C(NC12CC3CCC1CC(C3)C2)[C@@H]1CCCN1C(=O)OCc1ccccc1 (stereo partly drawn) | 76.7 µM (inactive) | 50.4 µM (inactive) | 69.5 µM (inactive) | 85.9 µM (inactive) | 18.6 µM (inactive) | > 100 µM (inactive) | 85.9 µM (inactive) |  |  | 36.5 µM (inactive) | 36.1 µM (inactive) | 50.9 µM (inactive) | 26.7 µM (inactive) | 34.4 µM (inactive) | 85.5 µM (inactive) | 42.4 µM (inactive) | 16.8 µM (inactive)
11 | O=[N+]([O-])c1ccc(Cl)cc1C1SCc2nc3ccccc3n21 (stereo not drawn) | 53 µM (inactive) | 41.7 µM (inactive) | 69.7 µM (inactive) | 86.3 µM (inactive) |  | 80.5 µM (inactive) | 31.2 µM (inactive) | 5.3 µM (inactive) | 44.4 µM (inactive) | 31.2 µM (inactive) | 85.7 µM (inactive) | 74.6 µM (inactive) | 16.3 µM (inactive) |  | 87.5 µM (inactive) | 40.4 µM (inactive) | 26.6 µM (inactive)
12 | CC(=O)NC(Cc1ccccc1)C(=S)N1CCCC1 (stereo not drawn) | > 100 µM (inactive) | > 100 µM (inactive) | > 100 µM (inactive) | > 100 µM (inactive) | > 80.5 µM (inactive) | > 100 µM (inactive) | > 100 µM (inactive) | > 100 µM (inactive) | > 100 µM (inactive) | > 100 µM (inactive) | > 100 µM (inactive) | > 100 µM (inactive) | 55.3 µM (inactive) |  | > 100 µM (inactive) | > 100 µM (inactive) | > 100 µM (inactive)
13 | NCCCCN(CCCN)/[N+]([O-])=N\O | > 100 µM (inactive) | > 100 µM (inactive) |  | > 100 µM (inactive) | > 100 µM (inactive) | > 100 µM (inactive) | > 100 µM (inactive) | > 100 µM (inactive) | > 100 µM (inactive) | > 100 µM (inactive) | > 100 µM (inactive) | > 100 µM (inactive) | > 100 µM (inactive) | > 100 µM (inactive) |  | > 100 µM (inactive) | > 100 µM (inactive)
14 | O=C1C=CC2(O)OCC3C=C4O[C@@H]5OC6(CCCCC6)O[C@@H]5C4[C@@H]2[C@@H]13 (stereo partly drawn) | 20.4 µM (inactive) | > 100 µM (inactive) | 38.3 µM (inactive) | 53.2 µM (inactive) | 13.2 µM (inactive) | 56.4 µM (inactive) | 20.5 µM (inactive) | > 100 µM (inactive) | 22.6 µM (inactive) | 16.2 µM (inactive) | > 100 µM (inactive) | > 100 µM (inactive) | 35.6 µM (inactive) |  | 20.7 µM (inactive) | > 100 µM (inactive) | 
15 | NC(=O)NC1C(C(=O)O)N(Cc2ccccc2)C(=O)N1Cc1ccccc1 (stereo not drawn) | > 100 µM (inactive) | > 100 µM (inactive) | > 100 µM (inactive) | > 100 µM (inactive) | > 100 µM (inactive) | > 100 µM (inactive) | > 100 µM (inactive) | > 100 µM (inactive) | > 100 µM (inactive) | > 100 µM (inactive) | > 100 µM (inactive) | > 100 µM (inactive) | > 100 µM (inactive) | > 100 µM (inactive) | > 100 µM (inactive) | > 100 µM (inactive) | 
16 | COc1cc(Nc2cnc3ccc(C(F)(F)F)cc3n2)cc(OC)c1OC | 13.5 µM (inactive) | 20.4 µM (inactive) | > 100 µM (inactive) | 4.43 µM (inactive) | 4.82 µM (inactive) |  |  | 12.9 µM (inactive) |  | 15.3 µM (inactive) | 5.53 µM (inactive) | > 100 µM (inactive) |  | > 100 µM (inactive) | 38.1 µM (inactive) | > 100 µM (inactive) | 68.4 µM (inactive)
17 | CC1CCSC(N(C(=O)N(C)c2ccccc2)c2ccccc2)=N1 (stereo not drawn) | > 100 µM (inactive) | > 100 µM (inactive) | > 100 µM (inactive) | > 100 µM (inactive) |  | > 100 µM (inactive) | > 100 µM (inactive) | > 100 µM (inactive) |  | > 100 µM (inactive) | > 100 µM (inactive) | > 100 µM (inactive) | > 100 µM (inactive) |  | > 100 µM (inactive) | > 100 µM (inactive) | > 100 µM (inactive)
18 | Cc1c2ccncc2c(C)c2c1[nH]c1ccc(Cl)cc12 | 1.07 µM (active) |  | 4.84 µM (inactive) | 7.76 µM (inactive) |  | 2.86 µM (inactive) | 4.57 µM (inactive) | 1.54 µM (inactive) | 2.11 µM (inactive) | 1.59 µM (inactive) |  | 2.35 µM (inactive) | 3.55 µM (inactive) |  | 6.07 µM (inactive) | 5.13 µM (inactive) | 4.58 µM (inactive)
